The record followed here is patent US6503941B2, “Ferulic ester derivative, 3,9-diferulylcoumestrol and cosmetic product containing same” (Hanbul Cosmetics Co., Ltd., priority 2000, dated 2003).

Series [1] concerns human-derived fibroblast(ATCC, Hs68). Briefly: Cell toxicity and activity, MTT. It counts as cell-based. The settings on record: for Cell activity: at LD50. The method, then: Test cells of human-derived fibroblast(ATCC, Hs68) were cultivated in DMEM medium added by 10% FBS at 37° C. in the condition of 5%CO2, 100% humidity. 1×10^5 cells/ml of cells were seeded in 96 plate and incubated at 37° C. for 24 hr. Samples sterilized by 0.2 µm filter were added according to the fixed concentration and further incubated at 37° C. for 24 hr. Then, MTT regent was added and incubated at 37° C. for 4 hr, then the culture solution was removed. After, 1N NaOH isopropane solution was added and stirred for 20 min, the absorbance at 565 nm was measured. Then, the cell apoptosis concentration was determined by comparing the untreated cell (survival ratio: 100%).
Cell activity at LD50 was 20%, which was satisfactory level.

Series [2] can be described thus: Anti-oxidant effect, activated oxygen removal by NBT method. To be noted: 0.1%(wt/wt) sample solution; NBT absorbance at 560 nm; suppression ratio. It counts as biochemical. The method, then:
And whitening activity and anti-oxidant activity were measured by determining tyrosinase inhibition effect and using NBT method. 0.1% vitamin C, 0.1% vitamin E, kojic acid and albutin were used as sample. To determine anti-oxidant effect, activated oxygen produced from xanthine and xanthine oxidase were measured using NBT method and activated oxygen removal effect of the tested materials was determined. Activated oxygen was produced by xanthine and xanthine oxidase. The activated oxygen was determined by measuring the blue color produced from the reaction of the activated oxygen and Nitroblue tetrasolium (NBT) at 560 nm of wavelength. 6) Xanthines oxidase solution: xanthine oxidase(Boehringer) was diluted about 100 times so that its blank test absorbance within the range of 0.2-0.23. In other word, the purified water was diluted so that the absorbance change be A560=0.3/20 min. (1)1,2,3,4 and 5 are introduced into vial bottle and 0.1 ml of sample solution is added, which are maintained at 5° C. for 10 min. (2) It is added by 6 and stirred immediately, followed by 20 min of culture at 25° C. (3) After 7 is added, the reaction is stopped. Then, absorbance (St) at 560 nm is measured. (4) Blank test is carried out in the same way except distilled water is used instead of sample solution and absorbance (Bt) is measured. 5) Blank test for sample is carried out in the same way except distilled water is used instead of 6 and absorbance (Bo) is measured. The effect is calculated in the following way. Suppression ratio (%)=[1−(St−So)/(Bt−Bo)×100

Series [3] has as its system tyrosinase. The experiment in a line: Tyrosinase inhibition effect (whitening activity). The series is classed as biochemical. The settings on record: 0.1%(wt/wt) sample solution; tyrosine 0.2 mg/ml, tyrosinase 680 units/ml, 37° C. The method, then:
And whitening activity and anti-oxidant activity were measured by determining tyrosinase inhibition effect and using NBT method. 0.1% vitamin C, 0.1% vitamin E, kojic acid and albutin were used as sample. […] A solution for blank test was tyrosine 1 ml+phosphoric acid buffer 1 ml+distilled water 1 ml. The procedure of the test is as follows. [table] 1) A,B and C are mixed and maintained at 37° C. for 30 min. 2) D is added and maintained for just 30 min. 3) After 10 min±10 sec, they are took out and the reaction ends in a refrigerating condition by ice. 4) when comparing the absorbance the comparative samples, the absorbencies of comparative group are tested and then those of blank test group are test(at […]). Tyrosinase activity inhibition effect(%) us calculated in the following way and the result is shown as Table 2. Tyrosinase activity inhibition effect (%): [1−(E−B/C)]×100 (B: blank test group, C: control group, E: test group)

The test system of series [4] is collagen in the skin of hairless mice. Briefly: Collagen formation effect, skin tissue test for collagen proliferation promoting effect. The series is classed as in vivo. The settings on record: 0.1%(wt/wt) 1,3-BG solution applied to body of hairless mice. The method, then: To confirm the collagen formation effect of the synthesized 3,9-diferulylcoumestrol, 10 female hairless mice of 8week age were prepared. From the 2 mice, skin was taken out and standard dye samples were prepared using the side and middle part of the skin for investigation the collagen proliferation level. The other 8 mice were divided into two for the applied group and the control group.
In the same test condition, the whole body except head and belly of the applied group and the control group and were applied by 3,9-diferulycoumestrol 0.1%(wt/wt) 1,3-BG solution and 1,3-BG solution, for 15 days and 30 days.
From the applied group and the control group respectively, 2 mice were selected and their skins were cut out, then dyed samples were obtained from the side and middle part of the skin. After 30 days, skin dyed samples were obtained in the same way. For each of the obtained 10 dyed skin samples of the control group and the applied group, collagen proliferation promoting effect were compared on the basis of the skin condition of &week age. […] From the result, it was experimentally confirmed that 3,9diferulylcoumestrol is excellent in collagen synthesis and collagen proliferation promotion(FIG. 2)

The mark [5] stands for this setting: 24 hr, diluted in 1,3-butylenglycol.

With `COc1cc(C=CC(=O)Oc2ccc3c(c2)oc(=O)c2c4ccc(OC(=O)C=Cc5ccc(O)c(OC)c5)cc4oc32)ccc1O` [3,9-diferulylcoumestrol], in series [1] (setting [5]), the “concentration range in which cell apoptosis did not show” value was at most 78 µM and the “concentration range in which cell apoptosis did not show (%)” value was at most 0.0048%. Moreover, in series [1], the Cell activity came out at 20%. Moreover, in series [2], the “Anti-oxidant effect (%)” value is recorded as 42%. The “Tyrosinase inhibition effect (%)” value in series [3] is listed as 76%. Also, the “collagen synthesis and proliferation in skin” value in series [4] (after 2 weeks (15 days), vs control groups) is “collagen synthesis and proliferation were found”. Also, in series [4] (after 30 days), the “collagen proliferation in corium layer and tissue density” value is “collagen proliferation in corium layer was increased and the tissue density was raised”.

Consider `OC[C@H]1O[C@@H](Oc2ccc(O)cc2)[C@H](O)[C@@H](O)[C@@H]1O` [Albutin], for which the “Tyrosinase inhibition effect (%)” value in series [3] came to 40%.

For `O=C1O[C@H]([C@@H](O)CO)C(O)=C1O` [Ascorbic acid], in series [3], the “Tyrosinase inhibition effect (%)” value came to 30%.

For `O=c1oc2cc(O)ccc2c2oc3cc(O)ccc3c12` [Coumestrol], in series [1], the “Evaluation (LD50)” value was “Safe”, the “Evaluation (cell activity)” value was “excellent” and the Cell activity came to 20%. In series [1] (24 hr), the LD50 % concentration stood at 0.0048% and the “LD50 mole concentration(mM)” value was found to be 0.078 mM. Moreover, the “Anti-oxidant effect (%)” value in series [2] was 28%.

As for `O=c1cc(CO)occ1O` [Kojic acid], the “Tyrosinase inhibition effect (%)” value in series [3] amounted to 91%.

Regarding Tocopherol, the “Anti-oxidant effect (%)” value in series [2] worked out at 43%.
